Test results as given in US8192962B2, “Processes for detecting toxic substances” (Daikin Industries, Ltd., priority 2001, dated 2012).

System: Metabolism protein genes
Assay: DNA chip mRNA expression in yeast, metabolism protein genes (Table 7)
Format: cell-based, Saccharomyces cerevisiae S288C
How it was run: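 S. cerevisiae S288C grown at 25° C in YPD were exposed in log phase for two hours to one toxic chemical at a growth-inhibiting, non-lethal concentration; untreated cells served as control. Poly(A) mRNA was reverse-transcribed with Cy3/Cy5-dUTP and hybridized to a whole-genome yeast DNA chip at 65° C for over 12 hours; values are fluorescence ratios versus untreated.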

Compound: COc1cc(CNC(=O)CCCCC=CC(C)C)ccc1O [(12), 8-methyl-N-vanillyl-6-nonenamide]
- level of expressed mRNA in the presence/in the absence of chemical substance (yeast gene YJR143C): 0.6
- The level of expressed mRNA in the presence of chemical substance/The level of expressed mRNA in the absence of chemical substance (yeast gene YJR148W): 0.8
- The level of expressed mRNA in the presence of chemical substance/The level of expressed mRNA in the absence of chemical substance (yeast gene YJR155W): 1.0
- The level of expressed mRNA in the presence of chemical substance/The level of expressed mRNA in the absence of chemical substance (yeast gene YKL035W): 1.0
- level of expressed mRNA in the presence/in the absence of chemical substance (yeast gene YKL060C): 1.3
- The level of expressed mRNA in the presence of chemical substance/The level of expressed mRNA in the absence of chemical substance (yeast gene YKL091C): 1.3
- The level of expressed mRNA in the presence of chemical substance/The level of expressed mRNA in the absence of chemical substance (yeast gene YKL104C): 1.6
- level of expressed mRNA in the presence/in the absence of chemical substance (yeast gene YKL148C): 0.8
- The level of expressed mRNA in the presence of chemical substance/The level of expressed mRNA in the absence of chemical substance (yeast gene YKL152C): 1.5
- level of expressed mRNA in the presence/in the absence of chemical substance (yeast gene YKL157W): 1.0
- The level of expressed mRNA in the presence of chemical substance/The level of expressed mRNA in the absence of chemical substance (yeast gene YKL213C): 0.9
- The level of expressed mRNA in the presence of chemical substance/The level of expressed mRNA in the absence of chemical substance (yeast gene YKL215C): 1.0
- level of expressed mRNA in the presence/in the absence of chemical substance (yeast gene YKR034W): 0.7
- The level of expressed mRNA in the presence of chemical substance/The level of expressed mRNA in the absence of chemical substance (yeast gene YKR039W): 1.5
- The level of expressed mRNA in the presence of chemical substance/The level of expressed mRNA in the absence of chemical substance (yeast gene YLL058W): 1.0
- level of expressed mRNA in the presence/in the absence of chemical substance (yeast gene YLR006C): 0.7
- level of expressed mRNA in the presence/in the absence of chemical substance (yeast gene YLR044C): 1.4
- level of expressed mRNA in the presence/in the absence of chemical substance (yeast gene YLR056W): 0.9
- level of expressed mRNA in the presence/in the absence of chemical substance (yeast gene YLR058C): 0.4
- level of expressed mRNA in the presence/in the absence of chemical substance (yeast gene YLR081W): 1.0
- level of expressed mRNA in the presence/in the absence of chemical substance (yeast gene YLR089C): 0.6
- The level of expressed mRNA in the presence of chemical substance/The level of expressed mRNA in the absence of chemical substance (yeast gene YLR180W): 0.6
- The level of expressed mRNA in the presence of chemical substance/The level of expressed mRNA in the absence of chemical substance (yeast gene YLR273C): 0.9
- level of expressed mRNA in the presence/in the absence of chemical substance (yeast gene YLR284C): 0.6
- The level of expressed mRNA in the presence of chemical substance/The level of expressed mRNA in the absence of chemical substance (yeast gene YLR299W): 1.0
- The level of expressed mRNA in the presence of chemical substance/The level of expressed mRNA in the absence of chemical substance (yeast gene YLR300W): 0.5
- level of expressed mRNA in the presence/in the absence of chemical substance (yeast gene YLR304C): 1.0
- The level of expressed mRNA in the presence of chemical substance/The level of expressed mRNA in the absence of chemical substance (yeast gene YLR307W): 0.7
- The level of expressed mRNA in the presence of chemical substance/The level of expressed mRNA in the absence of chemical substance (yeast gene YLR348C): 0.9
- level of expressed mRNA in the presence/in the absence of chemical substance (yeast gene YLR354C): 1.2
- level of expressed mRNA in the presence/in the absence of chemical substance (yeast gene YLR372W): 0.6
- level of expressed mRNA in the presence/in the absence of chemical substance (yeast gene YML022W): 0.6
- The level of expressed mRNA in the presence of chemical substance/The level of expressed mRNA in the absence of chemical substance (yeast gene YML054C): 1.8
- The level of expressed mRNA in the presence of chemical substance/The level of expressed mRNA in the absence of chemical substance (yeast gene YML070W): 1.3
- The level of expressed mRNA in the presence of chemical substance/The level of expressed mRNA in the absence of chemical substance (yeast gene YML100W): 1.2
- The level of expressed mRNA in the presence of chemical substance/The level of expressed mRNA in the absence of chemical substance (yeast gene YMR008C): 1.1
- level of expressed mRNA in the presence/in the absence of chemical substance (yeast gene YMR011W): 0.8
- level of expressed mRNA in the presence/in the absence of chemical substance (yeast gene YMR015C): 0.9
- The level of expressed mRNA in the presence of chemical substance/The level of expressed mRNA in the absence of chemical substance (yeast gene YMR020W): 1.1
- level of expressed mRNA in the presence/in the absence of chemical substance (yeast gene YMR083W): 0.7
- The level of expressed mRNA in the presence of chemical substance/The level of expressed mRNA in the absence of chemical substance (yeast gene YMR105C): 1.7
- The level of expressed mRNA in the presence of chemical substance/The level of expressed mRNA in the absence of chemical substance (yeast gene YMR189W): 0.6
- level of expressed mRNA in the presence/in the absence of chemical substance (yeast gene YMR205C): 1.1
- level of expressed mRNA in the presence/in the absence of chemical substance (yeast gene YMR261C): 0.9
- The level of expressed mRNA in the presence of chemical substance/The level of expressed mRNA in the absence of chemical substance (yeast gene YMR271C): 1.3
- The level of expressed mRNA in the presence of chemical substance/The level of expressed mRNA in the absence of chemical substance (yeast gene YMR296C): 0.8
- level of expressed mRNA in the presence/in the absence of chemical substance (yeast gene YMR323W): 1.2
- The level of expressed mRNA in the presence of chemical substance/The level of expressed mRNA in the absence of chemical substance (yeast gene YNL012W): 1.3
- level of expressed mRNA in the presence/in the absence of chemical substance (yeast gene YNL025C): 0.8
- The level of expressed mRNA in the presence of chemical substance/The level of expressed mRNA in the absence of chemical substance (yeast gene YNL045W): 0.9
- The level of expressed mRNA in the presence of chemical substance/The level of expressed mRNA in the absence of chemical substance (yeast gene YNL104C): 1.1
- The level of expressed mRNA in the presence of chemical substance/The level of expressed mRNA in the absence of chemical substance (yeast gene YNL106C): 0.8
- The level of expressed mRNA in the presence of chemical substance/The level of expressed mRNA in the absence of chemical substance (yeast gene YNL169C): 1.0
- level of expressed mRNA in the presence/in the absence of chemical substance (yeast gene YNL192W): 1.1
- The level of expressed mRNA in the presence of chemical substance/The level of expressed mRNA in the absence of chemical substance (yeast gene YNL231C): 1.8
- The level of expressed mRNA in the presence of chemical substance/The level of expressed mRNA in the absence of chemical substance (yeast gene YNL322C): 0.7
- The level of expressed mRNA in the presence of chemical substance/The level of expressed mRNA in the absence of chemical substance (yeast gene YNL331C): 0.9
- The level of expressed mRNA in the presence of chemical substance/The level of expressed mRNA in the absence of chemical substance (yeast gene YNL332W): 1.2
- The level of expressed mRNA in the presence of chemical substance/The level of expressed mRNA in the absence of chemical substance (yeast gene YNR019W): 1.0
- The level of expressed mRNA in the presence of chemical substance/The level of expressed mRNA in the absence of chemical substance (yeast gene YNR033W): 1.1
- The level of expressed mRNA in the presence of chemical substance/The level of expressed mRNA in the absence of chemical substance (yeast gene YNR059W): 0.8
- The level of expressed mRNA in the presence of chemical substance/The level of expressed mRNA in the absence of chemical substance (yeast gene YOL058W): 1.3
- level of expressed mRNA in the presence/in the absence of chemical substance (yeast gene YOL086C): 1.3
- level of expressed mRNA in the presence/in the absence of chemical substance (yeast gene YOL108C): 1.0
- level of expressed mRNA in the presence/in the absence of chemical substance (yeast gene YOL116W): 0.6
- The level of expressed mRNA in the presence of chemical substance/The level of expressed mRNA in the absence of chemical substance (yeast gene YOL126C): 1.1
- The level of expressed mRNA in the presence of chemical substance/The level of expressed mRNA in the absence of chemical substance (yeast gene YOL153C): 1.9
- level of expressed mRNA in the presence/in the absence of chemical substance (yeast gene YOL156W): 0.9
- The level of expressed mRNA in the presence of chemical substance/The level of expressed mRNA in the absence of chemical substance (yeast gene YOL165C): 0.8
- level of expressed mRNA in the presence/in the absence of chemical substance (yeast gene YOR002W): 0.5
- level of expressed mRNA in the presence/in the absence of chemical substance (yeast gene YOR085W): 0.8
- The level of expressed mRNA in the presence of chemical substance/The level of expressed mRNA in the absence of chemical substance (yeast gene YOR099W): 1.1
- level of expressed mRNA in the presence/in the absence of chemical substance (yeast gene YOR103C): 1.2
- level of expressed mRNA in the presence/in the absence of chemical substance (yeast gene YOR108W): 0.7
- level of expressed mRNA in the presence/in the absence of chemical substance (yeast gene YOR128C): 0.5
- The level of expressed mRNA in the presence of chemical substance/The level of expressed mRNA in the absence of chemical substance (yeast gene YOR130C): 0.9
- level of expressed mRNA in the presence/in the absence of chemical substance (yeast gene YOR142W): 0.8
- level of expressed mRNA in the presence/in the absence of chemical substance (yeast gene YOR176W): 1.3
- level of expressed mRNA in the presence/in the absence of chemical substance (yeast gene YOR178C): 1.7
- level of expressed mRNA in the presence/in the absence of chemical substance (yeast gene YOR251C): 0.9
- The level of expressed mRNA in the presence of chemical substance/The level of expressed mRNA in the absence of chemical substance (yeast gene YOR336W): 1.0
- The level of expressed mRNA in the presence of chemical substance/The level of expressed mRNA in the absence of chemical substance (yeast gene YOR347C): 1.2
- level of expressed mRNA in the presence/in the absence of chemical substance (yeast gene YOR348C): 0.7
- The level of expressed mRNA in the presence of chemical substance/The level of expressed mRNA in the absence of chemical substance (yeast gene YPL017C): 1.0
- level of expressed mRNA in the presence/in the absence of chemical substance (yeast gene YPL028W): 1.4
- level of expressed mRNA in the presence/in the absence of chemical substance (yeast gene YPL057C): 1.0
- level of expressed mRNA in the presence/in the absence of chemical substance (yeast gene YPL135W): 1.1
- level of expressed mRNA in the presence/in the absence of chemical substance (yeast gene YPL148C): 0.7
- The level of expressed mRNA in the presence of chemical substance/The level of expressed mRNA in the absence of chemical substance (yeast gene YPR026W): 1.2
- level of expressed mRNA in the presence/in the absence of chemical substance (yeast gene YPR113W): 0.7
- level of expressed mRNA in the presence/in the absence of chemical substance (yeast gene YPR165W): 0.8
- The level of expressed mRNA in the presence of chemical substance/The level of expressed mRNA in the absence of chemical substance (yeast gene YPR167C): 1.3
- level of expressed mRNA in the presence/in the absence of chemical substance (yeast gene YPR183W): 1.2
